Assay results: patent US6525022B1, “Receptor specific atrial natriuretic peptides” (Genentech, Inc., priority 1993, dated 2003)
Where a SMILES comes first, the peptide text is derived from it. Bridges are numbered along the chain shown (N, C = ends).

Key:
[1] = biological target: T1, membrane preparation from rhesus monkey lung (Macaca mulatta, UniProt F7HE88); assay: cGMP stimulation of rhesus lung membranes; type: biochemical; details: FIG. 13, rhesus monkey lung membranes
T1 construct: from tissue; host or cells: rhesus monkey lung membranes
T1 sequence (F7HE88 33-1061): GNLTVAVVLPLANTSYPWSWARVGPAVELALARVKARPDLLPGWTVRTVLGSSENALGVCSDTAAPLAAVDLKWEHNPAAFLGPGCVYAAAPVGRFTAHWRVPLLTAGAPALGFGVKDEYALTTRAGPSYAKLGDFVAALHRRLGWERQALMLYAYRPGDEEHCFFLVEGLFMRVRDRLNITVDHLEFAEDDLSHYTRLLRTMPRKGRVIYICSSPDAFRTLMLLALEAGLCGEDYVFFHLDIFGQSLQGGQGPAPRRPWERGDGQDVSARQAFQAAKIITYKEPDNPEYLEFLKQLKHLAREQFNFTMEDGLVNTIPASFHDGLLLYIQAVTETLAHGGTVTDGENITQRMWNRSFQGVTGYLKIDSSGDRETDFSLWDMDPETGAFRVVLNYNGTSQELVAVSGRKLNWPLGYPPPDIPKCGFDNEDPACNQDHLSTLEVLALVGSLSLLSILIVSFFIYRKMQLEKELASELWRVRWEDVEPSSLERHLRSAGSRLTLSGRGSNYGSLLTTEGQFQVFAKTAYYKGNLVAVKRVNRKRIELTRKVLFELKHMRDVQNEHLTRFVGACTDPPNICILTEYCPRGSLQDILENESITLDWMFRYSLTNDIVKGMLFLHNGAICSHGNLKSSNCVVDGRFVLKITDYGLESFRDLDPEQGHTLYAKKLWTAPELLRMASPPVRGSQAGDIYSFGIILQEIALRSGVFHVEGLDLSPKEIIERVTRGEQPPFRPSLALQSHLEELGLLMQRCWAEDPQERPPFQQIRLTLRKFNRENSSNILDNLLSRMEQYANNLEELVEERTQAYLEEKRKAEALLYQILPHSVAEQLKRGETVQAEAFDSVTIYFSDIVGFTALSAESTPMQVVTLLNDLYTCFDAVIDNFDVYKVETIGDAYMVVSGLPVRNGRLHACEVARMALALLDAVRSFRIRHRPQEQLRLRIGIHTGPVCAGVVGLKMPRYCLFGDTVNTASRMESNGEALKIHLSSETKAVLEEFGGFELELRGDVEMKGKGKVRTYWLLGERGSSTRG
Procedure: For preparation of membranes from Rhesus monkey tissues, frozen tissue was placed between parafilm and broken up into pieces by hitting with a hammer. Tissue was transferred to a 125 mL polypropylene tube containing 100 mL of ice-cold buffer #1 (50 mM HEPES, pH 7.4, 1 mM EDTA, 250 mM sucrose, 0.7 mg/mL pepstatin A, 0.5 mg/mL leupeptin, 1 mM PMSF, and 1 mM phosphoramidon). Tissue was homogenized with a Brinkman polytron on a setting of 5 two times for 10 sec. The sample was placed on ice between homogenizations. 11 mL of 30 mM MgCl2/100 mM NaCl containing 1 mM phosphoramidon was added to the homogenate. The homogenate was spun at 400×g for 10 min at 4° C. in a HB-4 rotor. The supernatant was transferred to another tube and spun as above. The supernatant was passed though four layers of sterile gauze then centrifuged at 30,000×g for 20 min at 4° C. in a 60 Ti rotor. The pellet was resuspended in 3-5 mL of buffer #2 (50 mM HEPES, pH 7.4, 0.1 mM EDTA, 5 mM MgCl2, 100 mM NaCl, 0.7 mg/mL pepstatin A, 0.5 mg/mL leupeptin, 1 mM PMSF, and 1 mM phosphoramidon), using a 7 mL Wheaton Dounce with a B pestle. Aliquots were stored at −80° C. […]
Data analysis. The competition binding curves and cGMP production dose responses were analyzed by the four-parameter logistic equation with the KaleidaGraph™ program (Synergy Software, PA) to obtain estimates of the IC50 or EC50 values. […]

rhesus monkeys = type: in vivo; details: rhesus monkey
Procedure: Administration of Natriuretic Peptides to Rhesus Monkeys. […] A second iv catheter was inserted for fluid administration and blood withdrawal. A urinary catheter was inserted and urine flow monitored at 10 minute intervals. Urine output and blood withdrawal volumes were replaced by intravenous administration of equal volumes of equal parts of one-half normal saline and 5% (W/V) dextrose in water (D5W). […] Every ten minutes, urine, if present, was collected, the volume recorded and analyzed for sodium and potassium content.

Compound | Potency in stimulation of cGMP production compared with rat ANP [1] | Urine flow, potassium excretion and sodium excretion (rhesus monkeys; 7.5 ng/kg/min 60-minute infusion) | Potassium excretion (rhesus monkeys; 25 ng/kg/min infusion) | Sodium excretion above baseline (rhesus monkeys; 25 ng/kg/min infusion) [fold] | Urine flow above baseline (rhesus monkeys; 25 ng/kg/min infusion) | Systolic arterial pressure (rhesus monkeys; escalating iv infusion from 7.5 ng/kg/min) | Infusion rate at which dosing was discontinued because of hypotension (rhesus monkeys; in vivo) [ng/kg/min]
CC[C@H](C)[C@@H]1NC(=O)[C@H](CCCNC(=N)N)NC(=O)[C@H](CC(=O)O)NC(=O)[C@H]([C@@H](C)CC)NC(=O)[C@H](CO)NC(=O)CNC(=O)[C@H]([C@@H](C)O)NC(=O)[C@H](Cc2ccccc2)NC[C@@H](NC(=O)[C@H](CO)NC(=O)[C@H](CO)NC(=O)[C@H](CCCNC(=N)N)NC(=O)[C@H](CCCNC(=N)N)NC(=O)[C@H](CC(C)C)NC(=O)[C@@H](N)CO)CSSC[C@@H](C(=O)N[C@@H](CC(N)=O)C(=O)N[C@@H](CO)C(=O)N[C@@H](Cc2ccccc2)C(=O)N[C@@H](CCCNC(=N)N)C(=O)N[C@@H](Cc2ccc(O)cc2)C(=O)O)NC(=O)CNC(=O)[C@H](CC(C)C)NC(=O)CNC(=O)[C@H](CO)NC(=O)[C@H](CCC(N)=O)NC(=O)[C@H](C)NC(=O)[C@H](CCCNC(=N)N)NC1=O [ANF 84] | more potent than rat ANP | began to rise in parallel at the beginning of the 7.5 ng/kg/min infusion, but returned to baseline by 60 minutes | remained at slightly-elevated levels | ~100 | approximately 10 fold | began to gradually decline | 25
CC[C@H](C)[C@@H]1NC(=O)[C@H](CCCNC(=N)N)NC(=O)[C@H](CC(=O)O)NC(=O)[C@H]([C@@H](C)CC)NC(=O)[C@H](CO)NC(=O)CNC(=O)[C@H]([C@@H](C)O)NC(=O)[C@H](Cc2ccccc2)NC(=O)[C@@H](NC(=O)[C@H](CO)NC(=O)[C@H](CO)NC(=O)[C@H](CCCNC(=N)N)NC(=O)[C@H](CCCNC(=N)N)NC(=O)[C@H](CC(C)C)NC(=O)[C@H](CO)NC(=O)[C@H](CCCNC(=N)N)NC(=O)[C@@H]2CCCN2C(=O)[C@H](C)NC(=O)[C@@H](N)[C@@H](C)O)CSSC[C@@H](C(=O)N[C@@H](CC(N)=O)C(=O)N[C@@H](CO)C(=O)N[C@@H](Cc2ccccc2)C(=O)N[C@@H](CCCNC(=N)N)C(=O)N[C@@H](Cc2ccc(O)cc2)C(=O)O)NC(=O)CNC(=O)[C@H](CC(C)C)NC(=O)CNC(=O)[C@H](CO)NC(=O)[C@H](CCC(N)=O)NC(=O)[C@H](C)NC(=O)[C@H](CCCNC(=N)N)NC1=O [ANF 76] (H-TAPRSLRRSSCFTGSIDRIRAQSGLGCNSFRY-OH; disulfide 11-27; C-terminus assumed) | more potent than rat ANP | – | – | – | – | – | –
